In general, EC50 refers to the concentration at which the effect is half-maximal. By IC50 is commonly meant the point on the concentration scale where inhibition reaches its midpoint. Read a low IC50 as inhibition by little substance.

The subject of the test is CEM cells HIV-1 protection, formazan growth assay. Description: NCI AIDS Antiviral Assay. To be noted: for IC50: measured here: growth of uninfected CEM cells. The procedure, abridged:
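Human CEM cells, uninfected and HIV-1-infected, exposed to five drug concentrations; growth measured by soluble formazan assay and scored as percent protection from infection, with protecting compounds retested.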

Molecules are shown by their SMILES. Several values for one entry are separate records, joined by “and”; a condition that tells them apart may be missing. Identical values can stand only once. Activity calls are given as the source filed them.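 The calls were made as follows: active = compounds giving half or more protection of infected cells from virus-caused growth loss, again on retest; inactive = the rest.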

`O=C1/C(=C/c2ccc(F)cc2)CNC/C1=C\c1ccc(F)cc1`: the EC50 is greater than 15.1 µM and the IC50 is 0.288 µM.

In the case of `COc1cc([N+](=O)[O-])ccc1N1C(=O)C2c3[nH]c4ccccc4c3C3CCC(C(C)(C)C)CC3C2C1=O` (centres undefined), the EC50 is greater than 200 µM and the IC50 stood at 138 µM.

Regarding `O=C(CSC(=S)N1CCOCC1)Nc1nc2c(s1)CCCC2`, the EC50 is greater than 72.4 µM and the IC50 came out at 61.7 µM.

Take `COC1C=C(NCC2(CO)CCC2)NC(N)=N1` (centres undefined): the EC50 was greater than 200 µM and the IC50 was greater than 200 µM.

As for `c1ccc(N=C(N2CCCC2)N(CCN2CCCC2)c2ccccc2)cc1`, the EC50 is greater than 200 µM and the half-inhibitory concentration (IC50) worked out at 9.33 µM.

With `COc1cc(N)c2c(c1)SCCC(=O)N2`, the EC50 is greater than 200 µM and the IC50 was greater than 200 µM.

With `N#CC1(C#N)C(C#N)(C#N)C1(C#N)C(N)=O`, the EC50 was greater than 200 µM and the IC50 is greater than 200 µM.

In the case of `N#Cc1nc(CCC(C(=O)O)N2C(=O)c3ccccc3C2=O)oc1N` (centres undefined), the EC50 was greater than 100 µM and the IC50 was greater than 100 µM.

For the compound `CCOC(=O)/C(C#N)=C1/c2ccccc2C(=O)C1(Cl)C(N)=O` (centres undefined), the EC50 is greater than 200 µM and the IC50 is 28.8 µM.

Take `COc1c2occc2c(S(=O)(=O)O)c2ccc(=O)oc12`: the EC50 was greater than 302 µM and the half-maximal inhibitory concentration (IC50) was greater than 302 µM.

Turning to `COc1ccc(C(=O)[O][Sn]([c]2ccccc2)([c]2ccccc2)[c]2ccccc2)c(OC)c1OC`, the EC50 was greater than 2 µM and the 50% inhibitory concentration (IC50) worked out at 0.11 µM.

Regarding `Cc1ccc2nsnc2c1[N+](=O)[O-]`, the EC50 is greater than 257 µM and the IC50 is greater than 257 µM.

Take `CCCC[C@H]1[C@@H](OCOc2ccccc2)COC(=O)N1[C@H](C)c1ccccc1`: the EC50 was greater than 200 µM and the IC50 worked out at 21.4 µM.

For `O=c1ccc2c(cc3ccc4cccc5ccc2c3c45)o1`, the outcome was inactive.

For the compound `S=C(NC1=NCC(CN2CCN(c3ccccc3)CC2)O1)Nc1ccccc1` (centres undefined), the EC50 is greater than 200 µM and the IC50 came to 45.7 µM.

`COC(=O)[C@]1(C)CCC[C@]2(C)c3ccc(C(C)C)cc3C(=O)C[C@@H]12`: the EC50 is greater than 200 µM and the IC50 stood at 31.6 µM.

`C/C(=N\NC(=S)N1CCN(C2CCCCCC2)CC1)c1ccccn1` had an EC50 greater than 138 µM and an IC50 of 0.955 µM.

As for `Cc1ccc(S(=O)(=O)Nc2ccccc2SSc2ccccc2NS(=O)(=O)c2ccc(C)cc2)cc1`, the EC50 is greater than 200 µM and the IC50 is 4.57 µM.

On to `Cc1ccc(/C=C2\Cc3cccc(C)c3C2=O)c(C(=O)O)c1`, for which the EC50 is greater than 200 µM and the IC50 came out at 105 µM.

For the compound `CCCCCCCC(=O)c1c(O)c2ccccc2oc1=O`, the EC50 was greater than 200 µM and the IC50 was 26.9 µM.

In the case of `C=CCc1ccccc1N(C(=O)c1ccccc1)C(C(=O)OCC)c1ccccc1` (centres undefined), the EC50 was greater than 13.2 µM and the IC50 is greater than 13.2 µM.

For `COC(=O)CC1C=CC(C)(OC)OO1` (centres undefined), the EC50 was greater than 200 µM and the concentration for half-maximal inhibition (IC50) was determined as 93.3 µM.

As for `Nc1cc(-c2ccccc2)nn1-c1nsc2ccccc12`, the EC50 was greater than 17.8 µM and the IC50 is greater than 17.8 µM.

With `COc1ccc(/C=N/Nc2nnc3c4ccccc4n(C)c3n2)cc1`, the EC50 is greater than 200 µM and the IC50 is greater than 200 µM.

Regarding `CCCCC1(C(NC(=O)c2ccccc2Cl)c2ccncc2)C(=O)N(c2ccccc2)N(c2ccccc2)C1=O` (centres undefined), the outcome was inactive.

Consider `NS(=O)(=O)c1ccc(SSc2ccc(S(N)(=O)=O)cc2[N+](=O)[O-])c([N+](=O)[O-])c1`, for which the EC50 was 30.9 µM and the IC50 amounted to 195 µM.

`CCOc1ccccc1N=NC1C(=O)N(C(=O)CC(=O)Nc2ccccc2OC)N=C1C` (centres undefined): the EC50 was greater than 200 µM and the IC50 is greater than 200 µM.

As to `C=C1C(=O)[C@@]23C(O)C[C@@H]4C(C)(C)CCC(O)C4(COC(C)=O)[C@@H]2CC[C@@H]1[C@H]3O` (some centres undefined), the EC50 is greater than 631 µM and the concentration for half-maximal inhibition (IC50) turned out to be 0.372 µM.

For `COc1ccccc1/C=C/C(=O)c1ccccc1`, the EC50 is greater than 57.5 µM and the IC50 was 11.2 µM.

As to `O=[N+]([O-])c1ccc2nc3ccscc-3c2c1`, the EC50 is greater than 15.5 µM and the half-maximal inhibitory concentration (IC50) amounted to 2.88 µM.

In the case of `COc1ccc(-c2c3c(n(C4OC(COC(C)=O)C(OC(C)=O)C(OC(C)=O)C4OC(C)=O)c(=S)c2C#N)CCCC3)cc1` (centres undefined), the EC50 is greater than 200 µM and the IC50 was 89.1 µM.

`C[N+]1([O-])[C@H]2CC(OC(=O)[C@H](CO)c3ccccc3)C[C@H]1[C@H]1O[C@H]12` (some centres undefined): the EC50 is greater than 200 µM and the IC50 was greater than 200 µM.

Take `O=C1CCCCC/C1=C\c1ccc(Cl)cc1`: the EC50 was greater than 200 µM and the half-inhibitory concentration (IC50) worked out at 27.5 µM.

For `CC(C)NCCCNc1c2ccccc2nc2cccc([N+](=O)[O-])c12`, the EC50 is greater than 0.2 µM and the IC50 came out at 0.0316 µM.

Turning to `Nc1ccc(S(=O)(=O)N/N=C/c2ccc3c(c2)OCO3)cc1`, the EC50 is greater than 81.3 µM and the IC50 is greater than 81.3 µM.

As for `CCOC(=O)c1c(NS(=O)(=O)c2ccc(C)cc2)sc2c1CCCC2`, the EC50 was greater than 200 µM and the IC50 was 25.1 µM.

As for `C=C1[C@H](O)[C@@]2(C(=O)N1OC)/C(=C/CC)C=CC(=O)C2O` (some centres undefined), the EC50 was greater than 891 µM and the IC50 stood at 331 µM.

As to `COc1ccc(/C=C2\CCC(C)C3=C(c4ccc(OC)c(OC)c4)C(C#N)=C(N)OC32)cc1OC` (centres undefined), the EC50 is greater than 200 µM and the half-maximal inhibitory concentration (IC50) was found to be 8.32 µM.

With `O=C1/C(=C/c2ccc([N+](=O)[O-])cc2)Cc2ccccc21`, the EC50 was greater than 2.04 µM and the IC50 is greater than 2.04 µM.

`CCOC(=O)CNc1nnnn1C1OC(CO)C(O)C1O` (centres undefined): the EC50 was greater than 832 µM and the IC50 is greater than 832 µM.

As to `CC(=O)OCc1cc(OC(C)=O)cnc1COC(C)=O`, the EC50 was greater than 468 µM and the concentration for half-maximal inhibition (IC50) was greater than 468 µM.

For `Oc1c2c(c(O)c3ccccc13)C1(N=N2)c2ccccc2Oc2ccccc21`, the outcome was inactive.

As to `CO[C@@H]1CCC=C(C=O)O1`, the result was inactive.

As for `[N-]=[N+]=CC(=O)c1ccccc1C#CCCc1ccccc1`, the EC50 was 46.8 µM and the IC50 came out at 67.6 µM.

With `Cc1cc(-c2cscn2)c(O)c([N+](=O)[O-])c1`, the EC50 was greater than 200 µM and the IC50 came out at 35.5 µM.

Take `COc1ccc(COC(=O)NCC(=O)NC(C)C(=O)NC(Cc2ccccc2)C(=O)OCc2ccccc2)cc1` (centres undefined): the EC50 was greater than 200 µM; the IC50 was 45.7 µM and 12.9 µM.

On to `Sc1ccc2ccccc2c1CN1CCOCC1`, for which the EC50 is greater than 87.1 µM and the half-inhibitory concentration (IC50) is 32.4 µM.

Turning to `CSC1=Nc2ccccc2N(C)c2c1c(-c1ccccc1)nn2C`, the EC50 was greater than 200 µM and the IC50 is 43.7 µM.

Regarding `O=C(OCC(Cl)(Cl)Cl)OCC(Cl)(Cl)Cl`, the EC50 is greater than 200 µM and the IC50 was greater than 200 µM.

`CC1CCC2C(C(=O)O[C@H]3C4CCO[C@@H](OC5OC(CO)C(O)C(O)C5O)C4[C@@]4(CO)O[C@@H]34)=CO[C@@H](OC3OC(CO)C(O)C(O)C3O)C12` (some centres undefined): the EC50 was greater than 200 µM and the IC50 was greater than 200 µM.

As to `Cc1ccc(NC(=O)CC2C(=O)Nc3ccccc3S2=O)cc1C` (centres undefined), the EC50 was greater than 15.1 µM and the IC50 is greater than 15.1 µM.

With `N/C(=N/N=C/c1ccc2ccccc2n1)NO`, the outcome was inactive.

The values above are taken from PubChem BioAssay AID179 (DTP/NCI, 2004).
